Earlier results as cited in patent US20090285770A1, “Topical Compositions for Promoting Homeostasis of the Skin” (L'Oreal, priority 2005, published 2009).
Where two headings read alike, the source gives them in different places. Ends that are not written are not given here.

How the values were obtained:
β1 integrins [1] = conditions: cells in culture
β1 integrins [2] = test system: β1 integrins
(6 integrins) = conditions: fibroblasts and keratinocytes in culture
[3] = test system: α2, α3, α6, αv and β1 integrins; conditions: keratinocytes in culture or reconstructed skins
P1 integrins = conditions: applied to skin ex vivo

In the case of “KLDAPT [VINCI 02, fibronectin mimetic hexapeptide sold by Vincience]”, the “expression of β1 integrins” value (β1 integrins [1]) is given as “stimulates the expression of β1 integrins”.

In the case of “RDFTKATNIRLRFLR [VINCI 01, laminin mimetic oligopeptide sold by Vincience]”, the “expression of β1 integrins” value (β1 integrins [2]) is listed as “stimulates the expression of β1 integrins”.

In the case of SERILESINE, the “expression of (6 integrins)” value ((6 integrins)) is given as “increasing the expression of (6 integrins”.

In the case of zinc gluconate, the “expression of integrins, in particular the α2, α3, α6, αv and β1 integrins” value (from here on “expression of integrins”) [3] is given as “capable of increasing the expression of integrins”.

For copper gluconate, the “expression of integrins” value [3] is listed as “capable of increasing the expression of integrins”.

In the case of manganese gluconate, the “expression of integrins” value [3] is listed as “capable of increasing the expression of integrins”.

For “GPQGPQ [COLLAXYL, collagen mimetic hexapeptide sold by Vincience]”, the “expression of P1 integrins” value (P1 integrins) is listed as “stimulates the expression of P1 integrins”.
